# Results reported in patent publication US5952307A, “Basic α-aminoalkylphosphonate derivatives” (priority 1997, dated 1999).
# Assays:
# Assay type in all cases: biochemical
# bovine trypsin = biological target: T1, bovine trypsin (Bos taurus, UniProt P00760); assay: Inactivation rate of bovine trypsin, incubation method; conditions: for kobs /[I] bovine trypsin: 0.13 μM trypsin, 0.25-42 μM inhibitor, 80 mM Hepes pH 7.5, 1 mM CaCl2, 8% DMSO, 25° C., NI = no inhibition; for kobsd /[I] bovine trypsin: Table I, 0.1M Hepes, 0.01M CaCl2 pH 7.5, 25° C., 2% DMSO, substrate Z--Arg--SBzl, NI = no inhibition after 25 min
# T1 sequence (P00760 24-246): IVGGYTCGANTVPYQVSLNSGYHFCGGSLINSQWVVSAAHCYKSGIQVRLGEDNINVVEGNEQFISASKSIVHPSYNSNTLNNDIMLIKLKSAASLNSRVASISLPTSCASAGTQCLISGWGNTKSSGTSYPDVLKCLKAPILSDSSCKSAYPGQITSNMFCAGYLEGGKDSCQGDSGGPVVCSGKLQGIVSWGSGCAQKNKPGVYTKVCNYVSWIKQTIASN
# Procedure: (§1) Inactivation rates of serine proteases by aryl diesters of peptidyl derivatives of α-aminoalkylphosphonates were measured by the incubation method. An aliquot of inhibitor (25 or 50 μl) in Me2 SO was added to a buffered enzyme solution (0.01-2.3 μM) to initiate the inactivation. Aliquots (50 μl) were withdrawn at various intervals and the residual enzymatic activity was measured. Me2 SO concentration in the reaction mixture was 8-12% (v/v). A 0.1 M HEPES, 0.01 M CaCl2, pH 7.5 buffer was utilized for trypsin and trypsin-like enzymes. A 0.1 M HEPES, 0.5 M NaCl, pH 7.5, was utilized for the other serine proteases. Peptide thioesters or peptide nitroanilides with the appropriate sequences were used as substrates for various serine proteases. All peptide thioesters hydrolysis rates were measured with the assay mixture containing 4,4'-dithiodipyridine {ε324 =19800 M^-1 cm^-1; Grasetti & Murray, Arch. Biochem. Biophys. 1967, 119, 41-48}. Peptide 4-nitroanilide hydrolysis was measured at 410 nm {ε410 =8800 M^-1 cm^-1; Erlanger et al., Arch. Biochem. Biophys. 1961, 95, 271-278}. First order inactivation rate constants (Kobs) were obtained from plots of In vt /vo vs time, and the correlation coefficients were greater then 0.98.
# (§2) ^a Inhibition constants were measured in 0.1M Hepes, 0.01M CaCl2
# (§3) pH 7.5 for trypsin, granzymes A, and K, and in 0.1M Hepes, 10% glycerol,
# (§4) 10 mM heparin, pH 7.5 for mast cell tryptase, and at 25° C. The
# (§5) reaction mixtures contained 2% DMSO for trypsin, 7.6% for granzyme A, and
# (§6) 7.1% for granzyme K and tryptase. The substrate was Z--Arg--SBzl for
# (§7) granzymes and trypsin, and Z--Arg--SBzl or Z--Lys--SBzl for tryptase in
# (§8) the presence of DTNB. The inhibitor # concentration ranged from 0.001 to
# (§9) ^b NI, no inhibition after 25 min of incubation with enzyme.
# (§10) ^a Enzyme was incubated with the inhibitor in 250 μL of the proper
# (§11) buffer at 25° C. Specifically, the inhibition reation mixtures wer
# composed of: 0.13 μM trypsin, 0.25-42 μM inhibitor in an 80 mM
# (§12) Hepes, pH 7.5 buffer containing 1 mM CaCl2 and 8% DMSO; 0.07 μM
# (§13) DMSO. Aliquots of 25 μL were withdrawn at various intervals and the
# (§14) residual enzymatic activity was measured as described in experimental
# (§15) section. The kobs values were calculated from pseudofirst-order
# (§16) ^a Enzyme (0.06-0.5 μM) was incubated with the inhibitor (0.25-42
# (§17) μM) in 250 μL of the proper buffer containing 9% DMSO at 25°
# (§18) C. The final inhibition reaction mixtures are given in the footnote to
# (§19) Table 1. Aliquots of 25 μL were withdrawn at various intervals and the […]
# human thrombin = biological target: T2, human thrombin (Homo sapiens, UniProt P00734); conditions: Table II; for kobs /[I] human thrombin: 0.07 μM thrombin, 0.25-42 μM inhibitor, 80 mM Hepes pH 7.5, 428 mM NaCl, 8% DMSO, 25° C., NI = no inhibition
# T2 construct: bovine trypsin, human thrombin
# Procedure: as §1, with “271-278}.” for “271-278}. First order inactivation rate constants (Kobs) were obtained from plots of In vt /vo vs time, and the correlation coefficients were greater then 0.98.”
# as §10, §11, §12
# thrombin, 0.25-42 μM inhibitor in an 80 mM Hepes, pH 7.5 buffer
# (§20) containing 428 mM NaCl and 8% DMSO; 0.07 μM tryptase, 20-66 μM
# as §13, §14, §15, §16, §17, §18, §19
# human granzyme A = biological target: T3, human granzyme A (Homo sapiens, UniProt P12544); assay: Inactivation rate of human granzyme A, incubation method; conditions: Table I; 0.1M Hepes, 0.01M CaCl2 pH 7.5, 25° C., 7.6% DMSO, substrate Z--Arg--SBzl
# T3 sequence (P12544 29-262): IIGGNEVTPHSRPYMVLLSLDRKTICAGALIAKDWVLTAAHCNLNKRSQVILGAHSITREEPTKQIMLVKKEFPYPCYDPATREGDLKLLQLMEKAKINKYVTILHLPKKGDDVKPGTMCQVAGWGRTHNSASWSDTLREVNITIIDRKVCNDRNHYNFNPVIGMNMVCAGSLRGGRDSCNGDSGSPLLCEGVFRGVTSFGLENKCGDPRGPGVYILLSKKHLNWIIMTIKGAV
# Procedure: as §1, §2, §3, §4, §5, §6, §7, §8, §9
# mast cell tryptase = mast cell tryptase (Homo sapiens, UniProt Q15661); assay: Inactivation rate of mast cell tryptase, incubation method; conditions: for kobs /[I] mast cell tryptase: Table II, 0.07 μM tryptase, 20-66 μM inhibitor, Hepes pH 7.5, heparin, 9% glycerol, 8% DMSO, 25° C., NI = no inhibition
# mast cell tryptase, sequence (Q15661 31-275): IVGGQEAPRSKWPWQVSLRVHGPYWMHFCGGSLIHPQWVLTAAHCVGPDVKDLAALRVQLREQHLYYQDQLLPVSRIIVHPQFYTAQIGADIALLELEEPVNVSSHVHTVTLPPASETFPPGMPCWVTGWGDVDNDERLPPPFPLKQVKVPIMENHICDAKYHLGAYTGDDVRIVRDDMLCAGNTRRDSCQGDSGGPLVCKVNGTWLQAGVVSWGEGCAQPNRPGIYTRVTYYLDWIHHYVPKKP
# Procedure: as §1, §2, §3, §4, §5, §6, §7, §8, §9, §10, §20
# inhibitor # in an mM Hepes, pH 7.5 buffer containing 8 mM heparin, 166 m
# NaCl, 0.8 mM Mes, 9% glycerol and 8% DMSO; 0.42 μM factor Xa, 66 μM
# as §13, §14, §15, §16, §17, §18, §19
Structure (SMILES),kobs /[I] bovine trypsin (bovine trypsin; Table II),kobs /[I] human thrombin (human thrombin),further results
CC(C)CC(NC(=O)OC(C)(C)C)C(=O)NC(CO)C(=O)NC(c1ccc(C(=N)N)cc1)P(=O)(Oc1ccccc1)Oc1ccccc1 (mixture of isomers) [Boc--Leu--Ser-(4-AmPhGly)^P (OPh)2],177 ± 2 M⁻¹ s⁻¹,97 ± 2 M⁻¹ s⁻¹,–
CC(C)CC(NC(=O)OC(C)(C)C)C(=O)NC(C(=O)NC(c1ccc(C(=N)N)cc1)P(=O)(Oc1ccccc1)Oc1ccccc1)C(C)O (mixture of isomers) [Boc--Leu--Thr-(4-AmPhGly)^P (OPh)2],35 ± 6 M⁻¹ s⁻¹,75 ± 1 M⁻¹ s⁻¹,–
"Cl.N=C(N)c1ccc(C(NC(=O)OCc2ccccc2)P(=O)(Oc2ccccc2)Oc2ccccc2)cc1 (stereo not drawn) [Cbz-(4-AmPhGly)^P (OPh)2, Diphenyl N-benzyloxycarbonylamino(4-amidinophenyl)methanephosphonate hydrochloride]",170 M⁻¹ s⁻¹,80 M⁻¹ s⁻¹,kobsd /[I] bovine trypsin (bovine trypsin): 2000 M⁻¹ s⁻¹
N=C(N)c1ccc(C(NC(=O)CCCc2ccccc2)P(=O)(Oc2ccccc2)Oc2ccccc2)cc1 (stereo not drawn) [4-Phenylbutanoyl-(4-AmPhGly)^P (OPh)2],–,17 ± 1 M⁻¹ s⁻¹,"% Inh bovine trypsin (bovine trypsin; Table II, printed in the kobs/[I] column): 15%"
CC(NC(=O)C(CCCCN)NC(=O)OCc1ccccc1)C(=O)NC(c1ccc(C(=N)N)cc1)P(=O)(Oc1ccccc1)Oc1ccccc1 (mixture of isomers) [Cbz--Lys--Ala-(4-AmPhGly)^P (OPh)2],"3,140 ± 262 M^-1 s^-1",180 ± 7 M⁻¹ s⁻¹,"kobsd /[I] human granzyme A (human granzyme A): 90 ± 9 M⁻¹ s⁻¹; kobsd /[I] mast cell tryptase (mast cell tryptase; Table I, 0.1M Hepes, 10% glycerol, 10 mM heparin, pH 7.5, 25° C., 7.1% DMSO, NI = no inhibition after 25 min of incubation): 2 M⁻¹ s⁻¹; kobs /[I] mast cell tryptase (mast cell tryptase): 2.0 ± 0.0 M⁻¹ s⁻¹; kobsd /[I] bovine trypsin (bovine trypsin): 3140 ± 262 M⁻¹ s⁻¹"
"Cl.N=C(N)c1ccc(C(NC(=O)OCc2ccccc2)P(=O)(Oc2ccc(Cl)cc2)Oc2ccc(Cl)cc2)cc1 (stereo not drawn) [Cbz-(4-AmPhGly)^P (OPh-p-Cl)2, Di-p-chlorophenyl N-Benzyloxycarbonylamino-(4-amidinophenyl)methanephosphonate Hydrochloride]","41,100 ± 5400 M^-1 s^-1","9,300 ± 210 M^-1 s^-1",kobs /[I] mast cell tryptase (mast cell tryptase): 3 ± 0 M⁻¹ s⁻¹
Cc1ccc(S(=O)(=O)NC(c2ccc(C(=N)N)cc2)P(=O)(Oc2ccccc2)Oc2ccccc2)cc1 (racemic) [Tolyl-SO2-(4-AmPhGly)^P (OPh)2],35 ± 6 M⁻¹ s⁻¹,94 ± 26 M⁻¹ s⁻¹,–
"COP(=O)(Oc1ccccc1)C(NC(=O)OCc1ccccc1)c1ccc(C(=N)N)cc1.Cl (stereo not drawn) [Cbz-(4-AmPhGly)^P (OPh)(OMe), Methyl Phenyl N-Benzyloxycarbonylamino-(4-amidinophenyl)methanephosphonate Hydrochloride]",83 M⁻¹ s⁻¹,41 M⁻¹ s⁻¹,–
CC(C)CC(NC(=O)C(CC(N)=O)NC(=O)OC(C)(C)C)C(=O)NC(C(=O)NC(c1ccc(C(=N)N)cc1)P(=O)(Oc1ccccc1)Oc1ccccc1)C(C)O (mixture of isomers) [Boc--Asn--Leu--Thr-(4-AmPhGly)^P (OPh)2],18 ± 2 M⁻¹ s⁻¹,46 ± 6 M⁻¹ s⁻¹,–
N=C(N)c1ccc(C(NC(=O)C(Cc2c[nH]c3ccccc23)NC(=O)OCc2ccccc2)P(=O)(Oc2ccccc2)Oc2ccccc2)cc1 (mixture of isomers) [Cbz--Trp-(4-AmPhGly)^P (OPh)2],0.6 M⁻¹ s⁻¹,1.2 ± 0.0 M⁻¹ s⁻¹,–
CC(C)C(NC(=O)OC(C)(C)C)C(=O)NC(C(=O)NC(c1ccc(C(=N)N)cc1)P(=O)(Oc1ccccc1)Oc1ccccc1)C(C)C (mixture of isomers) [Boc--Val--Val-(4-AmPhGly)^P (OPh)2],61 ± 5 M⁻¹ s⁻¹,85 ± 5 M⁻¹ s⁻¹,–
N=C(N)c1ccc(C(NC(=O)CNC(=O)OCc2ccccc2)P(=O)(Oc2ccccc2)Oc2ccccc2)cc1 (stereo not drawn) [Cbz--Gly-(4-AmPhGly)^P (OPh)2],195 ± 9 M⁻¹ s⁻¹,24 ± 3 M⁻¹ s⁻¹,–
CC(C)C(NC(=O)C(Cc1ccccc1)NC(=O)OC(C)(C)C)C(=O)NC(c1ccc(C(=N)N)cc1)P(=O)(Oc1ccccc1)Oc1ccccc1 (mixture of isomers) [Boc--D--Phe--Val-(4-AmPhGly)^P (OPh)2],30 ± 2 M⁻¹ s⁻¹,63 ± 4 M⁻¹ s⁻¹,–
"Cl.N=C(N)c1cccc(C(NC(=O)OCc2ccccc2)P(=O)(Oc2ccccc2)Oc2ccccc2)c1 (stereo not drawn) [Cbz-(3-AmPhGly)^P (OPh)2, Diphenyl N-Benzyloxycarbonylamino-(3-amidinophenyl)methanephosphonate Hydrochloride]",–,–,% Inh human thrombin (human thrombin; printed in the kobs/[I] column): 50%
"Cl.N=C(N)c1ccc(C(NC(=O)OCc2ccccc2)P(=O)(O)Oc2ccccc2)cc1 (stereo not drawn) [Cbz-(4-AmPhGly)^P (OPh)(OH), Phenyl Hydrogen N-Benzyloxycarbonylamino-(4-amidinophenyl)methanephosphonate Hydrochloride]",0.3 M⁻¹ s⁻¹,–,–
CC(C)CC(N)C(=O)NC(C(=O)NC(c1ccc(C(=N)N)cc1)P(=O)(Oc1ccccc1)Oc1ccccc1)C(C)O (mixture of isomers) [Leu--Thr-(4-AmPhGly)^P (OPh)2],24.5 ± 0.0 M⁻¹ s⁻¹,58 ± 3 M⁻¹ s⁻¹,–
